Active and inactive are the calls of the source.
Columns and labels:
[1] = target: Peroxisome proliferator-activated receptor gamma/Nuclear receptor coactivator 3 (Homo sapiens, UniProt P37231); format: functional;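 note: agonist potency for raising coactivator recruitment to the receptor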
[2] = target: Peroxisome proliferator-activated receptor gamma/Nuclear receptor coactivator 1 (Homo sapiens, UniProt P37231); format: functional;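 note: agonist potency as compounds enhance coactivator SRC-1 recruitment to PPARgamma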
Large T antigen = Large T antigen (Simian virus 40, UniProt P03070); format: functional, Betapolyomavirus macacae;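 note: Confirmatory-stage PubChem screen for compounds that inhibit SV40 T antigen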
[3] = target: Peroxisome proliferator-activated receptor gamma/Nuclear receptor coactivator 2 (Homo sapiens, UniProt P37231); format: functional;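 note: agonist potency for raising coactivator recruitment to the receptor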
[4] = mitochondrial function rescue without frataxin homolog – Friedreich's ataxia, plus single-dose screen, dose response (AID 1465); format: functional;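 note: yeast depleted of Yfh1p frataxin homolog grown on glycerol needing respiration; WST-1 tetrazolium dye reduction as measure of cellular dehydrogenase metabolic activity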
H4 = experiment: Luminescence Cell-Based Dose Response HTS to Identify Activators of 5'UTR Stem-Loop Driven Prion Protein mRNA Translation in H4 Neuroglioblastoma Cells. [Related pubchem assays: 1829 (Project Summary), 1814 (Primary HTS)]; format: functional; conditions: Homo sapiens
[5] = A Cell Based Secondary Assay To Explore Cytotoxicity of Compounds that Sensitize Mycobacterium Tuberculosis to Beta-Lactam Antibiotics.; format: functional
[6] = Luminescence Cell-Based Dose Response HTS to Identify Activators of Luciferase Translation or Activity in H4 […] Cells. [Related pubchem assays: 1829 (Project Summary), 1814 (Primary HTS)]; format: functional
[7] = Luminescence Cell-Based Dose Confirmation HTS to Identify Activators of 5'UTR Stem-Loop Driven Alpha-Synuclein mRNA Translation in H4 Neuroglioblastoma Cells. [Related pubchem assays: 1829 (Project Summary), 1814 (Primary HTS)]; format: functional
[8] = target: Transitional endoplasmic reticulum ATPase (Homo sapiens, UniProt P55072); experiment: p97 ATPase inhibitors, dose response, biochemical (AID 1534)
[9] = target: T1, Microphthalmia-associated transcription factor (Homo sapiens, UniProt O75030); experiment: reducers of TRPM1 reporter luminescence, concentration series – cell-based, SK-MEL-5, cherry-picked, set 3, MITF inhibitor project, dose response (AID 493073); format: functional;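 note: SK-MEL-5 melanoma cells with luciferase driven by the MITF target TRPM1 promoter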
T1 sequence (O75030 whole entry): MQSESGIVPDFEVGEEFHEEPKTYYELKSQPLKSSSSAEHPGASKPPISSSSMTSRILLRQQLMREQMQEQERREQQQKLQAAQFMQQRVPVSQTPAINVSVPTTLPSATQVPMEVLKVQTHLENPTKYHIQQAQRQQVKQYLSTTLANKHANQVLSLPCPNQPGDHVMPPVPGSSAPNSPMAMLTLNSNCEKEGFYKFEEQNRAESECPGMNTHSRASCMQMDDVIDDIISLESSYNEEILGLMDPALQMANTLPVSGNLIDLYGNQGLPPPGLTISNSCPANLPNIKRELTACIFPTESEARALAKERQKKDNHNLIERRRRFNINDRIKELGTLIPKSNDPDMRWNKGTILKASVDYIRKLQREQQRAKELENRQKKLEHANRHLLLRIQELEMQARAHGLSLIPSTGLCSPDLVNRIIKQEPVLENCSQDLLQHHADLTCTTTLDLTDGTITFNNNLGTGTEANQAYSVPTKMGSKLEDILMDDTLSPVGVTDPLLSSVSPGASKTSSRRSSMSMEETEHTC

[10] = NIH-3T3 fibroblast cytotoxicity, dose response, cytotoxicity control, cell-based, fluorescence, Alamar Blue, secondary assay (AID 2327); format: functional;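 note: NIH-3T3 mouse fibroblasts cultured with fluconazole at 8 µg/mL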
[11] = target: Transitional endoplasmic reticulum ATPase (Homo sapiens, UniProt P55072, C522A); experiment: C522A mutant p97 ATPase inhibitors, dose response, counter-screen for p97 inhibitor project, biochemical, luminescence (AID 1544)
[12] = fluconazole-exposed Candida albicans growth modulators – fluorescence, retest, confirmation (AID 2467); format: functional, cell-based
[13] = DRD fibroblast viability loss – cell-based, non-viral oncogenic, luminescence, dose response (AID 1934); format: functional; conditions: Homo sapiens
cells [14] = format: functional, cell-based
cells [15] = experiment: cells
[16] = Luminescence-based dose response cell-based high throughput screening assay for cytotoxic compounds using the IEC-6 intestinal epithelial cell line. [Related pubchem assays: 1858 (Summary AID.), 1825 (Counterscreen.), 1907 (Confirmation screen.)]; format: functional
[17] = NIH3T3 cell viability loss – ATP luminescence, mouse fibroblasts, counter-screen, dose response (AID 2010); format: functional, cell-based;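 note: cells exposed to compound for about 90 hours before reading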
[18] = alpha-synuclein stem-loop luciferase translation blockers – H4 neuroglioma cells, luminescence, confirmation (AID 1988); format: functional, cell-based
[19] = luciferase reporter signal reduction – luminescence, H4-C neuroglioblastoma cells, dose response (AID 2458); format: functional, cell-based;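 note: H4 neuroglioblastoma cells stably carrying a luciferase reporter gene fusion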
BJ [20] = experiment: BJ-TERT fibroblast viability loss – cell-based, RAS-independent, luminescence, dose response (AID 1933); format: functional; conditions: Homo sapiens
[21] = alpha-synuclein stem-loop translation blockers – luminescence, H4 neuroglioblastoma cells, dose confirmation, confirmation (AID 2454); format: functional, cell-based;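 note: H4 neuroglioblastoma cells carrying an alpha-synuclein 5'UTR luciferase reporter; potency for inhibition of the luciferase signal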
[22] = Trypanosoma cruzi growth suppression in host cells – NIH3T3 host cells, beta-gal luminescence, confirmation (AID 2044); format: functional, cell-based;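 note: intracellular parasites grown in NIH/3T3 mouse fibroblasts as host cells; luminescent beta-galactosidase reporter signal from transgenic T. cruzi replicating inside host cells; inhibitors lower the luminescence signal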
[23] = luciferase reporter signal suppression in cells – H4 neuroglioma cells, luminescence, dose response (AID 1990); format: functional, cell-based
[24] = HEK-293T viability loss after treatment – luminescence, T-cell screen hits, cytotoxicity control for TCR NF-kB inhibitor project, dose response (AID 489026); format: functional, cell-based;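 note: cells exposed to compound about 14 hours before the viability readout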
BJ [25] = experiment: cells; format: functional, cell-based; conditions: Homo sapiens
[26] = target: T2, Polyadenylate-binding protein 1 (Homo sapiens, UniProt P11940); experiment: MLLE domain peptide-binding blockers, IC50 – biochemical, fluorescence polarization, FITC-PAM2 peptide, dose response (AID 602259); format: functional; conditions: read-out: IC50_Mean
[27] = target: T2, Polyadenylate-binding protein 1; experiment: MLLE binding blockers, Cy5 peptide tracer – biochemical, fluorescence polarization, Cy5-PAM2 peptide, secondary, miRNA deadenylation inhibitor project, dose response (AID 602260); format: functional; conditions: read-out: IC50_Mean
[28] = target: Induced myeloid leukemia cell differentiation protein Mcl-1 (Homo sapiens, UniProt Q07820); format: functional
NS3 = NS3 (Hepatitis C virus, UniProt A3EZJ3); experiment: PubChem AID 2173; parameters: species or system Hepacivirus hominis
Protein Tat = target: T3, Protein Tat (Human immunodeficiency virus type 1 group M subtype B (isolate HXB2)(HIV-1), UniProt P04608); format: functional;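 note: tat binding to TAR RNA read out by fluorescence polarization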
T3 sequence (P04608 whole entry): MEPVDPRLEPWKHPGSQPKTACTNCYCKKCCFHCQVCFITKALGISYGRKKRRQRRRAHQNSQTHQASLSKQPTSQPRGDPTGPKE

Vero = experiment: cells; format: functional; conditions: Chlorocebus sabaeus
[29] = target: T4, Zinc finger protein mex-5 (Caenorhabditis elegans, UniProt Q9XUB2); experiment: potency of MEX-5 RNA-binding blockers – biochemical, C. elegans, fluorescence polarization, dose response (AID 1960)
T4 sequence (Q9XUB2 whole entry): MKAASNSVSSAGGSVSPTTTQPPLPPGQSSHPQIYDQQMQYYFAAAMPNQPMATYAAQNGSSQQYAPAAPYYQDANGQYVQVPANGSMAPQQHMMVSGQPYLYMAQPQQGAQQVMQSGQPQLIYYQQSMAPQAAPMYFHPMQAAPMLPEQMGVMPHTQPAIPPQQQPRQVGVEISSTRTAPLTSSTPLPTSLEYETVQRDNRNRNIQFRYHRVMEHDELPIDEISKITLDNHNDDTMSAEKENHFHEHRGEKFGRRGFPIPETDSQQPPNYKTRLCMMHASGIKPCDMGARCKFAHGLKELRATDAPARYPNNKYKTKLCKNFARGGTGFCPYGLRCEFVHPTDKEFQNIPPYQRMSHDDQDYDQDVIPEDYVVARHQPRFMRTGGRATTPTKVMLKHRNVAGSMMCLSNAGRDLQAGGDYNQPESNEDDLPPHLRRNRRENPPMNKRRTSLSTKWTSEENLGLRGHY

[30] = target: T5, Mannose-6-phosphate isomerase (Homo sapiens, UniProt P34949); experiment: MPI enzyme activity inhibition – biochemical, fluorescence intensity, coupled assay, primary screen (AID 1209)
T5 sequence (P34949 whole entry): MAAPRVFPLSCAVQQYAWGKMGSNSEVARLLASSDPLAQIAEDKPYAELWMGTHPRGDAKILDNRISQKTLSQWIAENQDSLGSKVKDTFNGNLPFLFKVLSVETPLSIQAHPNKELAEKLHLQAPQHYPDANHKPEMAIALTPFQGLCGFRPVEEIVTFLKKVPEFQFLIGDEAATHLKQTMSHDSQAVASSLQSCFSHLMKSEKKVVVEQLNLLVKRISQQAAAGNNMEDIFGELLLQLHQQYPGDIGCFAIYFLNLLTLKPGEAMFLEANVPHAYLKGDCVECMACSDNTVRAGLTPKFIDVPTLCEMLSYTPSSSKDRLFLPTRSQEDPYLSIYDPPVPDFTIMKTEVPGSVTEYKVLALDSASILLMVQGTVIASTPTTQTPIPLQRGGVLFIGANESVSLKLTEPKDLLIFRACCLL

[31] = Luminescence Cell-Based Dose Retest to Confirm Inhibitors of Cancer Stem Cells. [Related pubchem assays (depositor defined):AID2717, AID2721]; format: functional; conditions: Homo sapiens
[32] = viability of HCT116 lacking mutant beta-catenin – cell-based, human colon tumor, dose response (AID 1045); format: functional;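 note: HCT116 colon tumor cells with beta catenin knocked out; cells exposed to compound for 60 hours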
H9c2 = experiment: cells; format: functional, cell-based; conditions: Rattus norvegicus, H9c2, Myocardium;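 note: confirmatory concentration-response retest of ultra-high-throughput screening hits for modulation of myocardial damage; cell death induced by hydrogen peroxide oxidative stress; compound pretreatment for 60 min then peroxide exposure for 2 h; potency is for protecting the cells against peroxide damage rather than for killing them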
[33] = target: T5, Mannose-6-phosphate isomerase; experiment: MPI inhibition at elevated mannose 6-phosphate – biochemical, fluorescence intensity, high mannose 6-phosphate, primary screen (AID 1220)
[34] = viability of PTEN-deleted HCT116 cells – cell-based, HCT116 PTEN knockout, dose response (AID 1047); format: functional;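 note: HCT116 colon tumor cells with PTEN knocked out; cells exposed to compound for 60 hours before readout; potency for loss of cell viability measured by luminescence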
SUMO-activating enzyme [35] = target: T6, SUMO-activating enzyme (Homo sapiens, UniProt Q9UBT2); experiment: blockers of SAE1/SAE2–UBC9 SUMO transfer – biochemical, HTRF, uHTS, primary screen (AID 2006); format: protein-complex assay
SUMO-activating enzyme [36] = target: T6, SUMO-activating enzyme; experiment: blockers of UBC9-mediated SUMO conjugation – biochemical, AlphaScreen, SUMOylation inhibitor project, confirmation (AID 2018); format: functional
[37] = target: T7, RNA-binding protein pos-1 (Caenorhabditis elegans, UniProt G5EF15); experiment: disruptors of C. elegans POS-1 RNA interaction – biochemical, fluorescence polarization, dose response (AID 1964);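 note: purified POS-1 fused to maltose binding protein made in E. coli; potency of compounds blocking POS-1 binding to fluorescent RNA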
T7 sequence (G5EF15 whole entry): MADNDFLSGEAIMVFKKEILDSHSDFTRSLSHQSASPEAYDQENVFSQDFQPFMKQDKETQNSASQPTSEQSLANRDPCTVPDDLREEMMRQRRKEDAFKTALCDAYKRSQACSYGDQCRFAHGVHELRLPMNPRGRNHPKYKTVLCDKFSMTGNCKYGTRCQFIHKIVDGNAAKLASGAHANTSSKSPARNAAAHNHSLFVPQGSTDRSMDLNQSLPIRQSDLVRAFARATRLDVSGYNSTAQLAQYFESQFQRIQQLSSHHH

T2 sequence (P11940 whole entry, the tested form may be a part): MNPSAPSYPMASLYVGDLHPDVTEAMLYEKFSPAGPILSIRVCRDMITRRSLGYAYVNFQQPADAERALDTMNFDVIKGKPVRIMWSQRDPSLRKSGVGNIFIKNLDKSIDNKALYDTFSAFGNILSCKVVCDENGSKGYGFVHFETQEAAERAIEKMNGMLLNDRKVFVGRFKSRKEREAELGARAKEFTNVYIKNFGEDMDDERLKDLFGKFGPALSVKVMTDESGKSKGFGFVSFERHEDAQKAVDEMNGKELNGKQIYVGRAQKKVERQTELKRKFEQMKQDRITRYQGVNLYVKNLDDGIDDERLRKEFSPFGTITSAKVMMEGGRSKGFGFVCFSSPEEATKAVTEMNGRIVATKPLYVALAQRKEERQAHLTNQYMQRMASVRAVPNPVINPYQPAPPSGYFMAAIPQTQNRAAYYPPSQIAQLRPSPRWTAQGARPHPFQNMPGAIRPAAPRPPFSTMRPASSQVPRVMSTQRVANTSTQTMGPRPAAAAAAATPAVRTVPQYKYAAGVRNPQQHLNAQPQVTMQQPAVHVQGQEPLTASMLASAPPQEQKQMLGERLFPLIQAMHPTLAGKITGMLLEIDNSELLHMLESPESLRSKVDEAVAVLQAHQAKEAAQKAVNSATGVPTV
T6 sequence (Q9UBE0 whole entry): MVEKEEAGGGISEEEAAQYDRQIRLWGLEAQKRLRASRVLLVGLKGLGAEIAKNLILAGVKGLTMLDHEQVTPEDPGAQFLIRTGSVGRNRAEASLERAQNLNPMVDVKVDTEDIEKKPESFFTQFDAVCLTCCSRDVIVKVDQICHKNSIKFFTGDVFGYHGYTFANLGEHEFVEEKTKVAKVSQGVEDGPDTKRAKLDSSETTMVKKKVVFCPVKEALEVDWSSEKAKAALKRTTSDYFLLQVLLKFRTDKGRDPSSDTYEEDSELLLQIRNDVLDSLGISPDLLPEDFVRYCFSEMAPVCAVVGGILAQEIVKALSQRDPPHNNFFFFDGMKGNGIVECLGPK
T6 sequence (Q9UBT2 whole entry): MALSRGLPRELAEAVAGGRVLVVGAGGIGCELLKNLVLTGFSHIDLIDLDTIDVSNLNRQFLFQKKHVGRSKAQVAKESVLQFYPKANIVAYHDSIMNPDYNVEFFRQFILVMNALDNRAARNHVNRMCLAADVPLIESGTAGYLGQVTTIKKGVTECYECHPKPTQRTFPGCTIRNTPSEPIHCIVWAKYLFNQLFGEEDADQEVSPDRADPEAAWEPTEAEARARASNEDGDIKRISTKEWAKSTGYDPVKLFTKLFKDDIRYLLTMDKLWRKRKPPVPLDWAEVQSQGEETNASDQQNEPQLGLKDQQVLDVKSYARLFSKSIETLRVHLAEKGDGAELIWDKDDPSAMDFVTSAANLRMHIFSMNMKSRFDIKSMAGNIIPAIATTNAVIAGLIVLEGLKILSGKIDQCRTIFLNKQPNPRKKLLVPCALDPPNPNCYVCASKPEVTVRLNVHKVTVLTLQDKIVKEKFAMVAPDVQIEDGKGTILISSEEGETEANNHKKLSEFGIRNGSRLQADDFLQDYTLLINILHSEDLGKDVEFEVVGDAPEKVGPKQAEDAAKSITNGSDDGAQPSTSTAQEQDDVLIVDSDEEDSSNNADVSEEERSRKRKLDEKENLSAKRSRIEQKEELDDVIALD
Sequence of Transitional endoplasmic reticulum ATPase (Homo sapiens, UniProt P55072) (P55072 whole entry): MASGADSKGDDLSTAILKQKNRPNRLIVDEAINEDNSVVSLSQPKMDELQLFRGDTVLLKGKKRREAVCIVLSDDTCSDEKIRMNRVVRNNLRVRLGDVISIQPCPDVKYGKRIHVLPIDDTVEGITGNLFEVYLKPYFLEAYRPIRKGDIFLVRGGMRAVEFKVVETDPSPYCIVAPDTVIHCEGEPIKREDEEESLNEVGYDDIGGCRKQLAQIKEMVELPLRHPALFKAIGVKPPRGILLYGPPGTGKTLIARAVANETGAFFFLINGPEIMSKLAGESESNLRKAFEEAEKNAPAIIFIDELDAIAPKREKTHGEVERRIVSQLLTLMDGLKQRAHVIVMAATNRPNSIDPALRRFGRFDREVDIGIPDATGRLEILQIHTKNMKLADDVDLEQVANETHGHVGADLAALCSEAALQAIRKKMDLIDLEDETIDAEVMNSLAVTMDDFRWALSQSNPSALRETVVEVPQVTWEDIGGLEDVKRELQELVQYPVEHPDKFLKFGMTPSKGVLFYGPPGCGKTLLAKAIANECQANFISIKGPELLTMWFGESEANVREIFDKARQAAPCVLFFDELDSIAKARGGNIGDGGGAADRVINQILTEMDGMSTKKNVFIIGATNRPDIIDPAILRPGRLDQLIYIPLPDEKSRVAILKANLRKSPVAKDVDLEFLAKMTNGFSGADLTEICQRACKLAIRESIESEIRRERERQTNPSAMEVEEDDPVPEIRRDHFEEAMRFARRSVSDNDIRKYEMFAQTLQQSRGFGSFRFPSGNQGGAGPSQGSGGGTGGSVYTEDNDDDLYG
Sequence of Peroxisome proliferator-activated receptor gamma/Nuclear receptor coactivator 1 (P37231 whole entry): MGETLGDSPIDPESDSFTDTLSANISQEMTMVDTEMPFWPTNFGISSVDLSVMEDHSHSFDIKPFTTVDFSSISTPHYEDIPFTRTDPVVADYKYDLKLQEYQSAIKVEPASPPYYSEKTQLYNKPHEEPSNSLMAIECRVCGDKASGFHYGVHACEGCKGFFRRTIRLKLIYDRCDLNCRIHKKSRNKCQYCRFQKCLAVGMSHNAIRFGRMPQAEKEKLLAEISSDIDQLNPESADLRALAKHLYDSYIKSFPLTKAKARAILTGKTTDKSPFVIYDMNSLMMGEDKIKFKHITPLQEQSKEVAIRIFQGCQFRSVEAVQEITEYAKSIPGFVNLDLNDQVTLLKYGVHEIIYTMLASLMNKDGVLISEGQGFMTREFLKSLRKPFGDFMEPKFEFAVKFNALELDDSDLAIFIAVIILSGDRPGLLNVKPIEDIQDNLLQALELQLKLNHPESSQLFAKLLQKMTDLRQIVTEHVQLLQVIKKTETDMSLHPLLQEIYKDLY
Sequence of Peroxisome proliferator-activated receptor gamma/Nuclear receptor coactivator 1 (Q15788 whole entry, further chain): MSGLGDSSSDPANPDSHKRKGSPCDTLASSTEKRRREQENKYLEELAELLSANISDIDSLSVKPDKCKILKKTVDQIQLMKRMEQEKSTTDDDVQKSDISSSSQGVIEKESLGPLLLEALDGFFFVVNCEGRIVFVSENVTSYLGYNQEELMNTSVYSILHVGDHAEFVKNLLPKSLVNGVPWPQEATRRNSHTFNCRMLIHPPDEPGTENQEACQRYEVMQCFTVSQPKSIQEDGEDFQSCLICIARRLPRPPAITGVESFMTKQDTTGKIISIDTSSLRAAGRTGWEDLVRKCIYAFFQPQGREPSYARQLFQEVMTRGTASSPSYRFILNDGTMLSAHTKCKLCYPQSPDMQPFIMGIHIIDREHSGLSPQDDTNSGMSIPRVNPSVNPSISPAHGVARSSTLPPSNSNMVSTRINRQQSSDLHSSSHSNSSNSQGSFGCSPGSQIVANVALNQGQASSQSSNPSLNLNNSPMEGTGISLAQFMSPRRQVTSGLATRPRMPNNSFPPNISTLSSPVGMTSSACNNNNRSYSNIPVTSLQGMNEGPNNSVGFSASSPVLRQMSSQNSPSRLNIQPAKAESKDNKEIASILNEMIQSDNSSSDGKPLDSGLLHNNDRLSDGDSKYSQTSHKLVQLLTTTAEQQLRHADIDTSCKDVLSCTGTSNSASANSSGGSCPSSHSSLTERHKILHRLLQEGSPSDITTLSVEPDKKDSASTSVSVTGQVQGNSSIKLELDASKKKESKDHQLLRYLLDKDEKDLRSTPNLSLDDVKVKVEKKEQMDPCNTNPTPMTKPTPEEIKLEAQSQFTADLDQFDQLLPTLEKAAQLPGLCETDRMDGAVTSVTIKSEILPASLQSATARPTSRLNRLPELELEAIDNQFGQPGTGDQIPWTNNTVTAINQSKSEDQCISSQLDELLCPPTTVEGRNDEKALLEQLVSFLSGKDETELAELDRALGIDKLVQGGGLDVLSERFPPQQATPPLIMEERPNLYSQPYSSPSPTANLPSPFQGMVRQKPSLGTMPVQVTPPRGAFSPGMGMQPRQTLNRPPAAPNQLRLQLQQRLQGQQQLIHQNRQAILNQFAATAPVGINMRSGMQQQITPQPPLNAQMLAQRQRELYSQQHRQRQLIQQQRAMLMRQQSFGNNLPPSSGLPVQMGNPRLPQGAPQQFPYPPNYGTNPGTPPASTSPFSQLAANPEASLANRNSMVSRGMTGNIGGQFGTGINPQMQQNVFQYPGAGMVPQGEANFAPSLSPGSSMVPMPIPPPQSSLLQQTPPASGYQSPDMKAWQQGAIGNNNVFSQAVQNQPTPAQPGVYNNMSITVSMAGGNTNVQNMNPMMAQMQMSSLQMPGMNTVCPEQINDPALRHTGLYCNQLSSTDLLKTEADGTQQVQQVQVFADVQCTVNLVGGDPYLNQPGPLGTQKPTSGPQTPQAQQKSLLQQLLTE
Sequence of Induced myeloid leukemia cell differentiation protein Mcl-1 (Q07820 whole entry): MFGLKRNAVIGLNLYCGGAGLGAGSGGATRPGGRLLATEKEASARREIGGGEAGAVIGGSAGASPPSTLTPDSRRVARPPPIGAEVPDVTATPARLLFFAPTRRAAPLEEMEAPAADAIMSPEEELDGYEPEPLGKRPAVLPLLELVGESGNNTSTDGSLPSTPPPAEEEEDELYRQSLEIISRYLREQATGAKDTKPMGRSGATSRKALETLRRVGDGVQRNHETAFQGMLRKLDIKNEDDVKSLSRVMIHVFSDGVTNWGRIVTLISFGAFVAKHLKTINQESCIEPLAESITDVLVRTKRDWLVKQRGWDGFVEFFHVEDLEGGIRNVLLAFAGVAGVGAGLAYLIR

Nc1nc2ccc(N3CCOCC3)cc2s1
EC50 [1]: > 79.4 µM (not active)
EC50 [2]: > 79.4 µM (not active)
IC50 (Large T antigen): 7.66 µM (active)
EC50 [3]: > 79.4 µM (not active)

O=C1CNC(=S)N1CCc1ccc(Cl)cc1
EC50 [4]: > 100 µM (active)

N#CC1=C2C=Cc3ccccc3N2CCCC1=O
EC50 (H4): 21 µM (active)
CC50 [5]: > 40 µM (active)
EC50 [6]: 26.4 µM (active)
EC50 [7]: 20 µM (active)

Cc1[nH]c2ccccc2c1C(=O)CCl
IC50 [8]: > 50 µM (not active)
AC50 [9]: 6.78 µM (active)
EC50 [10]: 8.72 µM (inconclusive)
IC50 [11]: > 50 µM (not active)
EC50 [12]: 0.497 µM (active)

C/C=C(\C)C(=O)N[C@@H](c1ccccc1)[C@@H](O)C(=O)O[C@H]1C[C@@]2(O)[C@@H](OC(=O)c3ccccc3)C3[C@](C)(C(=O)[C@H](OC(C)=O)C(=C1C)C2(C)C)[C@H](O)C[C@H]1OC[C@@]31OC(C)=O (stereo not given in full)
EC50 [13]: < 0.12 µM (active)
EC50 (cells [14]): 0.19 µM (active)
EC50 (cells [15]): 0.011 µM (active)
IC50 [16]: 0.101 µM (active)
EC50 [17]: 0.171 µM (active)
EC50 [18]: < 0.1 µM (active)
EC50 [19]: 0.092 µM (active)
EC50 (BJ [20]): 0.189 µM (active)
EC50 [21]: 0.11 µM (active)
EC50 [22]: < 0.1 µM (active)
EC50 [23]: 1.71 µM (active)
IC50 [24]: > 80 µM (inactive)
EC50 (BJ [25]): > 150 µM (not active)

Cc1noc(/C=C/Nc2ccc(F)cc2F)c1[N+](=O)[O-]
CC50 [5]: 39 µM (active)
IC50 [26]: 27.5 µM (inactive)
IC50 [27]: 35.7 µM (inactive)

CCOC(=O)c1oc2ccc(S(=O)(=O)N3CCC(C)CC3)cc2c1C
EC50 [1]: > 79.4 µM (not active)
EC50 [2]: > 79.4 µM (not active)
EC50 [3]: > 79.4 µM (not active)

Sc1nnc(CSCc2ccc(Cl)cc2Cl)n1-c1ccccc1
EC50 [4]: > 100 µM (active)

O=C(c1ccc2nc(-c3ccco3)c(-c3ccco3)nc2c1)N1CCN(c2ncccn2)CC1
IC50 [28]: 7.82 µM (active)
IC50 (NS3): 11.5 µM (not active)
IC50 (Protein Tat): 7.28 µM (inconclusive)

Cc1ccccc1C(=O)Nc1nc2c(C)csc2c(=O)s1
IC50 [8]: > 50 µM (not active)
IC50 [11]: > 50 µM (not active)

CCOC(=O)c1c2ccc(OCC(=O)N/N=C/c3ccc(C)cc3)cc2n2ccccc12
CC50 (Vero): > 25 µM (active)
EC50 [29]: > 300 µM (not active)
IC50 [30]: > 50 µM (not active)
AC50 [31]: 5.11 µM (active)
EC50 [32]: 6.24 µM (active)
IC50 (H9c2): 40.5 µM (inactive)
IC50 [33]: 13.1 µM (active)
EC50 [34]: 5.25 µM (active)
IC50 (SUMO-activating enzyme [35]): 7.01 µM (active)
IC50 (SUMO-activating enzyme [36]): 17.9 µM (active)
EC50 [37]: > 300 µM (not active)
